For 20 compounds, IC50 results are on record in patent US9981975B2, “Pyrrolotriazine compounds as tam inhibitors” (Incyte Corporation, priority 2016, dated 2018).

Molecules are shown by their SMILES.

Assay type in all cases: biochemical
Experiment [1] deals with Tyro3 (Homo sapiens (Human), UniProt Q06418). Put plainly: TAM Enzymatic Assay (HTRF), Tyro3. The conditions noted are these: Tyro3, 60 min, room temperature. Here is the method:
(§1) The kinase assay buffer contained 50 mM HEPES, pH7.5, 10 mM MgCl2, 1 mM EGTA, 0.01% NP-40 and 2 mM DTT. 0.1 ul test compounds dissolved in DMSO were transferred from compound plates to white 384-well assay plates (Greiner […] plates). […] 4 ul enzyme solution (or assay buffer for the enzyme blank) was added to the appropriate wells in each plate, and then 4 ul/well substrate solution was added to initiate the reaction. The plate was protected from light and incubated at room temperature for 60 min. […] The plate was incubated for 1 h at room temperature, and HTRF (homogenous time resolved fluorescence) signal was measured on a PHERAstar FS plate reader (BMG labtech). Percentage of inhibition was calculated for each concentration and IC50 value was generated from curve fitting with GraphPad Prism software.

The target of experiment [2] is c-Mer (Homo sapiens (Human), UniProt Q12866). The experiment in a line: TAM Enzymatic Assay (HTRF), Mer. The conditions noted are these: 60 min, room temperature. The procedure:
as §1
Background: In TR-FRET formats the signal depends on donor and acceptor labels being close together.

Experiment [3] addresses phosphor-Axl (Homo sapiens (Human), UniProt P30530). Put plainly: TAM Enzymatic Assay (HTRF), Axl. The conditions noted are these: recombinant autophosphorylated Axl, 60 min, room temperature. The procedure:
Autophosphorylation of Axl was carried out by incubating the recombinant Axl protein (Life Technologies, PV4275) in buffer containing 50 mM Tris, pH7.5, 0.2 mg/ml Axl, 5 mM ATP, 20 mM MgCl2 and 2 mM DTT at room temperature for 1 hour.
as §1

Sequence of phosphor-Axl (P30530 26-894): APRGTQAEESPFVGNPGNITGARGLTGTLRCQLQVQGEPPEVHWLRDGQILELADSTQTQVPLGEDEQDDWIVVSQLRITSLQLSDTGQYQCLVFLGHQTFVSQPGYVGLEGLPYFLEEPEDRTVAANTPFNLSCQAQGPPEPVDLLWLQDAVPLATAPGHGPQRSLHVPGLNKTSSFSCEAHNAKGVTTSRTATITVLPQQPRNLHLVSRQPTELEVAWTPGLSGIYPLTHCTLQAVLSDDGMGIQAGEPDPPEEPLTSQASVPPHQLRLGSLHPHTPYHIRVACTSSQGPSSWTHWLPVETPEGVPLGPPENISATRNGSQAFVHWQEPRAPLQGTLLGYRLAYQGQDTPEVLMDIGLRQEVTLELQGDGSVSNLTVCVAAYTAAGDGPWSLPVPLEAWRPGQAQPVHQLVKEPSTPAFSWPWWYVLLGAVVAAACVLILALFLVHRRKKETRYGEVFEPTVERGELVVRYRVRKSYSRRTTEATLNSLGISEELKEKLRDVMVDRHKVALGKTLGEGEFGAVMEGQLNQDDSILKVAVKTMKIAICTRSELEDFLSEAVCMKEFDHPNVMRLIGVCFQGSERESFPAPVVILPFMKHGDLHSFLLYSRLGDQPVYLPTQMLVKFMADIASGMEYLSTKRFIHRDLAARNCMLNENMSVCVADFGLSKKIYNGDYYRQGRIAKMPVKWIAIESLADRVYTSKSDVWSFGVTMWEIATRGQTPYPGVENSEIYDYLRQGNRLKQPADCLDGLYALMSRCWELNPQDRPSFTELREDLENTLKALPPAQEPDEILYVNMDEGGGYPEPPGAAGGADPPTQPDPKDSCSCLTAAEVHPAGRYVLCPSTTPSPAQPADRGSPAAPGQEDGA
Sequence of Tyro3 (Q06418 41-890): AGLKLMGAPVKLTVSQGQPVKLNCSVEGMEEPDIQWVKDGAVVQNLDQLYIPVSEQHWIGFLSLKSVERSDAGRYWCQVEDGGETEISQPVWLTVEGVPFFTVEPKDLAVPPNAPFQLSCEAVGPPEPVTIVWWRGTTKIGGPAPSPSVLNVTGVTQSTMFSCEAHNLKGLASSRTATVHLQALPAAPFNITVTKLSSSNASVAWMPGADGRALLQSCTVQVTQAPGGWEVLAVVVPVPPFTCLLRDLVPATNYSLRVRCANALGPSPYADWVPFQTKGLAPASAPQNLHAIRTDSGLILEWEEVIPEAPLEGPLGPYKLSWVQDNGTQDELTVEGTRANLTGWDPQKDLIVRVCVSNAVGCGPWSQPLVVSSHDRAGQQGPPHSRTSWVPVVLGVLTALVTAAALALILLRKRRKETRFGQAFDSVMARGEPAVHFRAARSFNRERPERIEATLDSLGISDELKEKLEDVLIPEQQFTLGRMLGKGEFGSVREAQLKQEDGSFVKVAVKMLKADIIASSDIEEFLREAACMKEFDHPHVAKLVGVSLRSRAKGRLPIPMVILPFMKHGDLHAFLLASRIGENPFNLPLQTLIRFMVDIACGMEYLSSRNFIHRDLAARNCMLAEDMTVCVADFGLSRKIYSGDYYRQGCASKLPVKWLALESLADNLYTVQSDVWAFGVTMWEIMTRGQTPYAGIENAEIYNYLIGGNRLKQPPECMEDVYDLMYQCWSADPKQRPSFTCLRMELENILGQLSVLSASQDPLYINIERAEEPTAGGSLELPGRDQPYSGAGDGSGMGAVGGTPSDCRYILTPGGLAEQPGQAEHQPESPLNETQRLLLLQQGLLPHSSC
Sequence of c-Mer (Q12866 21-999): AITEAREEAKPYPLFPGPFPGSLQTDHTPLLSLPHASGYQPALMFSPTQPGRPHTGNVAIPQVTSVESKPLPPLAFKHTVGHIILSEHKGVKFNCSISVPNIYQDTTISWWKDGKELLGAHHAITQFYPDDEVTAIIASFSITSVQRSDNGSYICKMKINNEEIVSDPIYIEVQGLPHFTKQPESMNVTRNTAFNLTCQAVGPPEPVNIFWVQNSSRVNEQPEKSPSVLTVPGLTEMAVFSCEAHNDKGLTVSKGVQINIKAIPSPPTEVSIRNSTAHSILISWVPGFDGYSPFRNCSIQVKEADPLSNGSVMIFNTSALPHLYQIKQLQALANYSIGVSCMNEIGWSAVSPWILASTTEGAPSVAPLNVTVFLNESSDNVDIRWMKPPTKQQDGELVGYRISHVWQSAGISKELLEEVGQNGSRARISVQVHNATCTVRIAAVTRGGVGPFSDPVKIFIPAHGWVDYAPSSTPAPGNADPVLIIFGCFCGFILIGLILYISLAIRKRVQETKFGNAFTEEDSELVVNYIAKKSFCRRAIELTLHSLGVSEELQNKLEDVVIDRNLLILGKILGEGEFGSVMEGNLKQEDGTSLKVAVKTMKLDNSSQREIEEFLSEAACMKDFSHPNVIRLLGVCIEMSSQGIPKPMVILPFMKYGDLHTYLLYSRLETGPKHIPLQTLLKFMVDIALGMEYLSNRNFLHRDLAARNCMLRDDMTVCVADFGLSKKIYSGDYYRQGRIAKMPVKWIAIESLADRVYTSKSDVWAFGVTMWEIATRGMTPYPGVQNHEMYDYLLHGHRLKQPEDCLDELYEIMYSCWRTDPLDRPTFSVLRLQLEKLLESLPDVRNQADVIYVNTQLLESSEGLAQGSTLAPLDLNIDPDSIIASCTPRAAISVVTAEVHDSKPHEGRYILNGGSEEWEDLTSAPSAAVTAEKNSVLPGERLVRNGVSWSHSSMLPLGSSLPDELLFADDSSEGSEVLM

For `COC(=O)N1CCC(c2cc(-c3ccc(NC(=O)c4cccn(-c5ccc(F)cc5)c4=O)cc3)c3c(N)ncnn23)CC1` [Example 37, Methyl 4-{4-amino-5-[4-({[1-(4-fluorophenyl)-2-oxo-1,2-dihydropyridin-3-yl]carbonyl}amino)phenyl]pyrrolo[2,1-f][1,2,4]triazin-7-yl}piperidine-1-carboxylate], the IC50 was 10 to 100 nM in experiment [1], ≤ 5 nM in experiment [2] and ≤ 5 nM in experiment [3].

In the case of `Cc1c(Cl)cc(C(=O)Nc2ccc(-c3cc(C4CCN(C(=O)C(C)C)CC4)n4ncnc(N)c34)cc2)c(=O)n1-c1cccnc1` [Example 131, N-(4-(4-amino-7-(1-isobutyrylpiperidin-4-yl)pyrrolo[2,1-f][1,2,4]triazin-5-yl)phenyl)-5-chloro-6-methyl-2-oxo-2H-[1,3′-bipyridine]-3-carboxamide], the results for the 50% inhibitory concentration (IC50) in experiment [1], in experiment [2] and in experiment [3] were > 100 nM, ≤ 5 nM and ≤ 5 nM, respectively.

As for `CC(C)C(=O)N1CCC(c2cc(-c3ccc(NC(=O)c4ccc(-c5ccccn5)n(-c5ccccc5)c4=O)cc3)c3c(N)ncnn23)CC1` [Example 104, N-(4-(4-Amino-7-(1-isobutyrylpiperidin-4-yl)pyrrolo[2,1-f][1,2,4]triazin-5-yl)phenyl)-6-oxo-1-phenyl-1,6-dihydro-[2,2′-bipyridine]-5-carboxamide], the IC50 in experiment [2] and in experiment [3] was ≤ 5 nM throughout.

For `Nc1ncnn2c1c(-c1ccc(NC(=O)c3cccn(-c4ccccc4)c3=O)cc1F)cc2[C@H]1CC[C@@H](O)CC1` [Example 18, N-{4-[4-Amino-7-(cis-4-hydroxycyclohexyl)pyrrolo[2,1-f][1,2,4]triazin-5-yl]-3-fluorophenyl}-2-oxo-1-phenyl-1,2-dihydropyridine-3-carboxamide], the IC50 in experiment [2] and in experiment [3] was ≤ 5 nM throughout.

For `Nc1ncnn2c(C3CCN(CCO)CC3)cc(-c3ccc(NC(=O)c4cccn(-c5ccc(F)cc5)c4=O)cc3)c12` [Example 53, N-(4-{4-Amino-7-[1-(2-hydroxyethyl)piperidin-4-yl]pyrrolo[2,1-f][1,2,4]triazin-5-yl}phenyl)-1-(4-fluorophenyl)-2-oxo-1,2-dihydropyridine-3-carboxamide], in experiment [2], the half-inhibitory concentration (IC50) is ≤ 5 nM.

With `Cc1ncccc1-c1c(C)n(C2CC2)cc(C(=O)Nc2ccc(-c3cc(C4CCN(C(=O)C(C)C)CC4)n4ncnc(N)c34)cc2)c1=O` [Example 142, N-(4-(4-Amino-7-(1-isobutyrylpiperidin-4-yl)pyrrolo[2,1-f][1,2,4]triazin-5-yl)phenyl)-1-cyclopropyl-2,2′-dimethyl-4-oxo-1,4-dihydro-[3,3′-bipyridine]-5-carboxamide], the IC50 is > 100 nM in experiment [1] and ≤ 5 nM in experiment [3].

With `Cc1cc(NC(=O)c2cn(C(C)C)c(=O)n(-c3ccccc3)c2=O)ccc1-c1cc(C2CCN(C(=O)C(C)C)CC2)n2ncnc(N)c12` [Example 77, N-(4-(4-Amino-7-(1-isobutyrylpiperidin-4-yl)pyrrolo[1,2-f][1,2,4]triazin-5-yl)-3-methylphenyl)-1-isopropyl-2,4-dioxo-3-phenyl-1,2,3,4-tetrahydropyrimidine-5-carboxamide], the IC50 in experiment [1] is > 100 nM; in experiment [3] it was ≤ 5 nM.

For `Nc1ncnn2c1c(-c1ccc(NC(=O)c3cccn(-c4ccccc4)c3=O)cc1)cc2[C@H]1CC[C@@H](O)CC1` [7 (cis isomer), N-{4-[4-Amino-7-(cis-4-hydroxycyclohexyl)pyrrolo[2,1-f][1,2,4]triazin-5-yl]phenyl}-2-oxo-1-phenyl-1,2-dihydropyridine-3-carboxamide], the IC50 in experiment [2] is ≤ 5 nM.

Consider `CC(C)C(=O)N1CCC(c2cc(-c3ccc(NC(=O)c4cn(C(C)C)cc(-c5cncc(F)c5)c4=O)cc3)c3c(N)ncnn23)CC1` [Example 129, N-(4-(4-amino-7-(1-isobutyrylpiperidin-4-yl)pyrrolo[1,2-f][1,2,4]triazin-5-yl)phenyl)-5-(5-fluoropyridin-3-yl)-1-isopropyl-4-oxo-1,4-dihydropyridine-3-carboxamide], for which the IC50 is > 100 nM in experiment [1] and ≤ 5 nM in experiment [3].

Turning to `Cc1cccc(-n2c(=O)c(C(=O)Nc3ccc(-c4cc(C5CCN(C(=O)C(C)C)CC5)n5ncnc(N)c45)cc3)cn(C(C)C)c2=O)n1` [Example 149, N-(4-(4-Amino-7-(1-isobutyrylpiperidin-4-yl)pyrrolo[1,2-f][1,2,4]triazin-5-yl)phenyl)-1-isopropyl-3-(6-methylpyridin-2-yl)-2,4-dioxo-1,2,3,4-tetrahydropyrimidine-5-carboxamide], the IC50 was > 100 nM in experiment [1] and ≤ 5 nM in experiment [3].

`CN1CCC(c2cc(-c3ccc(NC(=O)c4cccn(-c5ccc(F)cc5)c4=O)cc3)c3c(N)ncnn23)CC1` [Example 21, N-{4-[4-Amino-7-(1-methylpiperidin-4-yl)pyrrolo[2,1-f][1,2,4]triazin-5-yl]phenyl}-1-(4-fluorophenyl)-2-oxo-1,2-dihydropyridine-3-carboxamide]: the 50% inhibitory concentration (IC50) in experiment [2] was ≤ 5 nM.

`Nc1ncnn2c1c(-c1ccc(NC(=O)c3cccn(-c4ccc(F)cc4)c3=O)cc1)cc2[C@H]1CC[C@@H](O)CC1` [Example 17, N-{4-[4-Amino-7-(cis-4-hydroxycyclohexyl)pyrrolo[2,1-f][1,2,4]triazin-5-yl]phenyl}-1-(4-fluorophenyl)-2-oxo-1,2-dihydropyridine-3-carboxamide]: the IC50 in experiment [2] and in experiment [3] was ≤ 5 nM in each case.

Turning to `Nc1ncnn2c(C3CCOCC3)cc(-c3ccc(NC(=O)c4cccn(-c5ccccc5)c4=O)cc3F)c12` [Example 15, N-{4-[4-Amino-7-(tetrahydro-2H-pyran-4-yl)pyrrolo[2,1-f][1,2,4]triazin-5-yl]-3-fluorophenyl}-2-oxo-1-phenyl-1,2-dihydropyridine-3-carboxamide], the IC50 in experiment [2] and in experiment [3] was ≤ 5 nM throughout.

As to `Cc1c(-c2cnn(C)c2)cc(C(=O)Nc2ccc(-c3cc(C4CCN(C(=O)C(C)C)CC4)n4ncnc(N)c34)cc2)c(=O)n1-c1cccnc1` [Example 133, N-(4-(4-Amino-7-(1-isobutyrylpiperidin-4-yl)pyrrolo[2,1-f][1,2,4]triazin-5-yl)phenyl)-6-methyl-5-(1-methyl-1H-pyrazol-4-yl)-2-oxo-2H-[1,3′-bipyridine]-3-carboxamide], the half-inhibitory concentration (IC50) in experiment [1] is > 100 nM; in experiment [3], ≤ 5 nM.

With `CCN(C)C(=O)N1CCC(c2cc(-c3ccc(NC(=O)c4cn(C(C)C)c(=O)n(-c5ccccc5F)c4=O)cc3)c3c(N)ncnn23)CC1` [Example 69, N-(4-(4-Amino-7-(1-(ethyl(methyl)carbamoyl)piperidin-4-yl)pyrrolo[1,2-f][1,2,4]triazin-5-yl)phenyl)-3-(2-fluorophenyl)-1-isopropyl-2,4-dioxo-1,2,3,4-tetrahydropyrimidine-5-carboxamide], the IC50 in experiment [1] was > 100 nM; in experiment [3], ≤ 5 nM.

For `CCc1cc(-c2ccc(NC(=O)c3cccn(-c4ccccc4)c3=O)cc2F)c2c(N)ncnn12` [Example 12, N-[4-(4-Amino-7-ethylpyrrolo[2,1-f][1,2,4]triazin-5-yl)-3-fluorophenyl]-2-oxo-1-phenyl-1,2-dihydropyridine-3-carboxamide], the IC50 in experiment [1] is > 100 nM; in experiment [2], ≤ 5 nM.

Regarding `CC(C)C(=O)N1CCC(c2cc(-c3ccc(NC(=O)c4cc5c(n(-c6cncc(F)c6)c4=O)CCC(C)(C)C5=O)cc3)c3c(N)ncnn23)CC1` [Example 115, N-(4-(4-Amino-7-(1-isobutyrylpiperidin-4-yl)pyrrolo[1,2-f][1,2,4]triazin-5-yl)phenyl)-1-(5-fluoropyridin-3-yl)-6,6-dimethyl-2,5-dioxo-1,2,5,6,7,8-hexahydroquinoline-3-carboxamide], the IC50 in experiment [1] is > 100 nM; in experiment [3], ≤ 5 nM.

For `CC(C)C(=O)N1CCC(c2cc(-c3ccc(NC(=O)c4cn(C(C)C)c(=O)n(-c5cccc(C#N)c5)c4=O)cc3)c3c(N)ncnn23)CC1` [Example 91, N-(4-(4-Amino-7-(1-isobutyrylpiperidin-4-yl)pyrrolo[2,1-f][1,2,4]triazin-5-yl)phenyl)-3-(3-cyanophenyl)-1-isopropyl-2,4-dioxo-1,2,3,4-tetrahydropyrimidine-5-carboxamide], the IC50 in experiment [1] is > 100 nM; in experiment [3], ≤ 5 nM.

Consider `Nc1ncnn2c1c(-c1ccc(NC(=O)c3cccn(-c4ccccc4)c3=O)cc1)cc2[C@H]1CC[C@H](O)CC1` [7 (trans isomer), N-{4-[4-Amino-7-(trans-4-hydroxycyclohexyl)pyrrolo[2,1-f][1,2,4]triazin-5-yl]phenyl}-2-oxo-1-phenyl-1,2-dihydropyridine-3-carboxamide], for which the IC50 in experiment [2] is ≤ 5 nM.

For the compound `Cc1cc(C(=O)N(C)C)ncc1-c1cc(-c2ccc(NC(=O)c3cn(C(C)C)c(=O)n(-c4ccccc4)c3=O)cc2)c2c(N)ncnn12` [Example 85, N-(4-(4-amino-7-(6-(dimethylcarbamoyl)-4-methylpyridin-3-yl)pyrrolo[1,2-f][1,2,4]triazin-5-yl)phenyl)-1-isopropyl-2,4-dioxo-3-phenyl-1,2,3,4-tetrahydropyrimidine-5-carboxamide], the IC50 in experiment [1] is > 100 nM; in experiment [3] it was ≤ 5 nM.

Usually IC50 stands for the concentration needed to halve the response being measured.
